We go through 6 compounds from patent US20250304533A1, “THERAPEUTIC ALKALOID COMPOUNDS” (Sensorium Therapeutics, Inc., priority 2022, published 2025).

One series has as its target T1, SERT (Homo sapiens, UniProt P31645).
T1 construct: expressed in transfected cells
The series can be described thus: SERT Inhibition Assay of Example A1 (Neurotransmitter Transporter fluorescence uptake, stable 5HTT cells). The series is classed as cell-based. As for the experimental part:
SERT inhibition was measured using a Neruotransmitter Transportation Fluorescence assay. Briefly, stable 5HTT cells were prepared in a 384 microwell plate. Compounds were prepared by in assay buffer (20 mM HEPES, 0.1% BSA). The compounds were added to the plated cells and incubated for 30 minutes at 37° C. 25 μL of dye solution (Molecular Devices Neurotransmitter Transporter Uptake Assay Kit) is added per well and incubated for 30 minutes at 37° C. The plates are then read on a plate reader.

The next series concerns the target T2, PDE4A1A (Homo sapiens, UniProt P27815).
T2 construct: purchased BPSBioscience
The series can be described thus: Recombinant PDE4 Inhibition Assay of Example A2. The series is classed as biochemical. Particulars: recombinant enzyme. As for the experimental part:
(§1) Recombinant PDE assay inhibition can be measured according to the BPSBioscience PDE4 assay kit, as described below.
(§2) 1) Dilute 20 µM FAM-Cyclic-3′,5′-AMP stock 100-fold with PDE buffer to make a 200 nM solution. Make only sufficient quantity needed for the assay; store remaining […] stock solution in aliquots at −20° C. 2) Add 25 μl of FAM-Cyclic-3′,5′-AMP (200 nM) to each well designated “Positive Control”, “Test Inhibitor”, and “Substrate Control”. 3) Add 20 μl of PDE assay buffer to each well designated “Substrate Control” and 45 μl of PDE assay buffer to each well designated “Blank”. 4) Add 5 μl of inhibitor solution to each well designated “Test Inhibitor”. For the wells labeled “Positive Control”, “Substrate Control” and “Blank”, add 5 μl of the same solution without inhibitor (inhibitor buffer). 5) Thaw PDE on ice. Upon first thaw, briefly spin tube containing enzyme to recover the full contents of the tube. 6) Dilute PDE4 in PDE buffer to 7.5 pg/μl (0.15 ng/reaction)*. Initiate reaction by adding 20 μl of PDE4 (7.5 pg/μl) to the wells designated “Positive Control” and “Test Inhibitor.” 7) Incubate at room temperature for 1 hour.
(§3) 1) Mix binding agent thoroughly and dilute binding agent 1:100 with binding agent diluent. 2) Add 100 μl diluted binding agent to each microwell. Incubate at room temperature for 1 hour with slow shaking. 3) Read the fluorescent polarization of the sample in a microtiter-plate reader equipped for the measurement of fluorescence polarization, capable of excitation at wavelengths ranging from 485±5 nm and detection of emitted light ranging from 528±10 nm. Blank value is subtracted from all other values.

A further series has as its target T3, PDE4B2 (Homo sapiens, UniProt Q07343).
T3 construct: purchased BPSBioscience
The series can be described thus: Recombinant PDE4 Inhibition Assay of Example A2. The series is classed as biochemical. Conditions: recombinant enzyme. As for the experimental part:
as §1, §2, §3

For another series, the target named is T4, PDE4C1 (Homo sapiens, UniProt Q08493).
T4 construct: purchased BPSBioscience
T4 sequence (Q08493 whole entry): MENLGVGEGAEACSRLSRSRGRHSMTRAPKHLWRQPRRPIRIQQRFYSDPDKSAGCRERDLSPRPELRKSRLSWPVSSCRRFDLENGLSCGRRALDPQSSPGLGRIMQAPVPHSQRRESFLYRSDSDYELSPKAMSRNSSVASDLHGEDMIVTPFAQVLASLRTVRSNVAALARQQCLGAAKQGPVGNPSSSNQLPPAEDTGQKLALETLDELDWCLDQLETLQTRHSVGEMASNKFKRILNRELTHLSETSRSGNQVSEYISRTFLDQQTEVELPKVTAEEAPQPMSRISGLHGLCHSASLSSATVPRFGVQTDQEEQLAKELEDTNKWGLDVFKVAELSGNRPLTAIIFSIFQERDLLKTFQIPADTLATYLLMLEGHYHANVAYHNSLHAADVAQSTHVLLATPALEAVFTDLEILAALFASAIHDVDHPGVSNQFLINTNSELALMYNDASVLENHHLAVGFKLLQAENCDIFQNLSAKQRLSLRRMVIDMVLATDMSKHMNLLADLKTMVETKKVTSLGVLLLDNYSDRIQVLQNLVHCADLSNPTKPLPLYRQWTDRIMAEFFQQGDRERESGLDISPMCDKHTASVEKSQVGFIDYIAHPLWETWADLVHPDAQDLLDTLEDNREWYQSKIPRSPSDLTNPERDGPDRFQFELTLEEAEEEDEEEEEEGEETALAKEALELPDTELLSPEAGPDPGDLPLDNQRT
The series can be described thus: Recombinant PDE4 Inhibition Assay of Example A2. The class given is biochemical. Conditions: recombinant enzyme. As for the experimental part: as §1, §2, §3

The target of the next series is T5, PDE4D2 (Homo sapiens, UniProt Q08499).
T5 construct: purchased BPSBioscience
T5 sequence (Q08499 303-809): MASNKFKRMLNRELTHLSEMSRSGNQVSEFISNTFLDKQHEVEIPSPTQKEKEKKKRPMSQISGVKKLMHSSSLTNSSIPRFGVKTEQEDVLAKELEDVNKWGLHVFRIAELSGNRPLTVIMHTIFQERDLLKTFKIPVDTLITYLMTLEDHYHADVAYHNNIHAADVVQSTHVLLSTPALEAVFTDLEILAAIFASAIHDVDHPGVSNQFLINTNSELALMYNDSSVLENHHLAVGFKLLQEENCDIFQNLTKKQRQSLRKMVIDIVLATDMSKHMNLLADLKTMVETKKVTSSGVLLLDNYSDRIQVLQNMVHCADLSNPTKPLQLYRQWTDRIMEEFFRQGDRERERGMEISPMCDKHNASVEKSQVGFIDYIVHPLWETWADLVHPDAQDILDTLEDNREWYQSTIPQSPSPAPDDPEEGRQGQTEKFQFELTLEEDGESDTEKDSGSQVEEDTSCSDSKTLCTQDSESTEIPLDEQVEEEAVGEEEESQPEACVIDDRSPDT
Put plainly: Recombinant PDE4 Inhibition Assay of Example A2. The series is classed as biochemical. Particulars: recombinant enzyme. As for the experimental part: as §1, §2, §3

Series [1] has as its target 5-HT transporter (“SERT”) (Homo sapiens, UniProt P31645). Particulars: Hill coefficient of binding curve, Harvey et al., 2011; cited from earlier work.
For series [2] the following is noted: cited from earlier work.
The mark [3] stands for this setting: class symbols, read-out: SERT IC50.

Structures are written as SMILES. Where two headings read alike, the source gives them in different places.

T2 sequence (P27815 1-647 isoform P27815-4): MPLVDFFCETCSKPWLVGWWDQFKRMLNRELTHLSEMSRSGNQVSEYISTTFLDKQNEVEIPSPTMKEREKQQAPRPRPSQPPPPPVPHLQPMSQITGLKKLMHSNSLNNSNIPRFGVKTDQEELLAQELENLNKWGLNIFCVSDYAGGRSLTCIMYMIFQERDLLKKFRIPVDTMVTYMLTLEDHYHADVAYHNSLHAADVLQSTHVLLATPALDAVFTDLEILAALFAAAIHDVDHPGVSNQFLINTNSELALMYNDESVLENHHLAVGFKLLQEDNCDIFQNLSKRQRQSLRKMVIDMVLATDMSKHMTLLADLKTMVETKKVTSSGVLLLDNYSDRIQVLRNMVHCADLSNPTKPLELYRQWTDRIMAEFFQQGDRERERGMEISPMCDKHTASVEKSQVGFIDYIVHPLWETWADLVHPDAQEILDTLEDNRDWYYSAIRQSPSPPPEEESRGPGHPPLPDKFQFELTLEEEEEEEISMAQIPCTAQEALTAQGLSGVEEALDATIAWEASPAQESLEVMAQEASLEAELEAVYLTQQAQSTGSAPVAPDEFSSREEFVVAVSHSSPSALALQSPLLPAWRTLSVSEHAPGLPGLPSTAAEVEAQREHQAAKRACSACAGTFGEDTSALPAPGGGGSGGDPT
T3 sequence (Q07343 1-564 isoform Q07343-2): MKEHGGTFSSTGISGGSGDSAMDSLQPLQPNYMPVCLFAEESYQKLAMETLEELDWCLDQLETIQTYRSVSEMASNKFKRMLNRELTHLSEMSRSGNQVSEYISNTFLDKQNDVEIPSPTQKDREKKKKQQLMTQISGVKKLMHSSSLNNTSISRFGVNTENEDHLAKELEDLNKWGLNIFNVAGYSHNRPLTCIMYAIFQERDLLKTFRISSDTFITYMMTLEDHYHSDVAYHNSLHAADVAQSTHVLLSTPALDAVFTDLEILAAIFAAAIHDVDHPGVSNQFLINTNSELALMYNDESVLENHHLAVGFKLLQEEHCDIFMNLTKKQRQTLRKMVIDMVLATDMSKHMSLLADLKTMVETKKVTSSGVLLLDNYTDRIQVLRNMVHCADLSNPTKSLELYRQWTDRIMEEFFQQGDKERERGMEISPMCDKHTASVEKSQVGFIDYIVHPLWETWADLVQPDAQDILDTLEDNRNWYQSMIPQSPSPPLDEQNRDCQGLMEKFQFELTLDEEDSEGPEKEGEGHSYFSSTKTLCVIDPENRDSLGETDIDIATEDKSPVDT
T1 sequence (P31645 whole entry, species assumed): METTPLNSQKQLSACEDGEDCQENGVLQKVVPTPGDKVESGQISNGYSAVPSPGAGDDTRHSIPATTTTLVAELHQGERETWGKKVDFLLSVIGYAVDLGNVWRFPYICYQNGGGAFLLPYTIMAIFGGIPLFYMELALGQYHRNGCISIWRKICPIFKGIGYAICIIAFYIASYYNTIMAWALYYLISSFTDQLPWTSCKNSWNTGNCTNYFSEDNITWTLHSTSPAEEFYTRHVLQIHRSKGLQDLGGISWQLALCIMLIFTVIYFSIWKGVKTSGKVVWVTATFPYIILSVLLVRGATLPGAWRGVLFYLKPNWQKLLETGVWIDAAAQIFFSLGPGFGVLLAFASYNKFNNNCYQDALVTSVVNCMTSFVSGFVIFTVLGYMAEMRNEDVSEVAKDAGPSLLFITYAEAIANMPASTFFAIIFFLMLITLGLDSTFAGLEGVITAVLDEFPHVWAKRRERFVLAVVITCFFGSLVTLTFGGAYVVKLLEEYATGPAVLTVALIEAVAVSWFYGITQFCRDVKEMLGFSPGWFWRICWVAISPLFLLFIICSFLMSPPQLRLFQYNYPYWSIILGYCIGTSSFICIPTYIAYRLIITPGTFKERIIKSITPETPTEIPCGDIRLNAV
Sequence of 5-HT transporter (“SERT”) (P31645 whole entry, species assumed): as above

A word on the IC50: it is the concentration needed to halve the response being measured. With `COc1cc([C@@]23C=CC(=O)C[C@@H]2N(C)CC3)cc(F)c1OC` [Compound 133, (3aR,7aS)-3a-(3-fluoro-4,5-dimethoxy-phenyl)-1-methyl-2,3,7,7a-tetrahydroindol-6-one], the IC50 was 0.1 to 0.5 µM on SERT (setting [3]); less than 1 µM at SERT (read-out: SERT inhibition IC50); 1 to 10 µM on PDE4A1A; 1 to 10 µM on PDE4B2; greater than 10 µM on PDE4C1; greater than 10 µM on PDE4D2.

Consider `COc1cc(C23C=CC(=O)CC2N(C)CC3)cc(OC)c1OC` (centres unmarked) [Compound 144, 1-methyl-3a-(3,4,5-trimethoxyphenyl)-2,3,7,7a-tetrahydroindol-6-one], for which the half-maximal inhibitory concentration (IC50) was greater than 1 µM on SERT (setting [3]); greater than 1 µM on SERT (read-out: SERT inhibition IC50); greater than 10 µM on PDE4A1A; greater than 10 µM on PDE4B2; greater than 10 µM at PDE4C1; greater than 10 µM at PDE4D2.

As for `COc1cc([C@@]23C=CC(=O)C[C@@H]2N(C)CC3)cc(I)c1OC` [Compound 132, (3aR,7aS)-3a-(3-iodo-4,5-dimethoxy-phenyl)-1-methyl-2,3,7,7a-tetrahydroindol-6-one], the IC50 was 0.1 to 0.5 µM at SERT (setting [3]); less than 1 µM at SERT (read-out: SERT inhibition IC50); greater than 10 µM on PDE4A1A; greater than 10 µM at PDE4B2; greater than 10 µM at PDE4C1; greater than 10 µM on PDE4D2.

For `COc1cc([C@@]23C=CC(=O)CC2N(C)CC3)cc(Br)c1OC` (stereo partly drawn) [Compound 130, (3aR)-3a-(3-bromo-4,5-dimethoxy-phenyl)-1-methyl-2,3,7,7a-tetrahydroindol-6-one], the IC50 on SERT (setting [3]) was 0.5 to 1 µM; on SERT (read-out: SERT inhibition IC50), less than 1 µM; on PDE4A1A, greater than 10 µM; on PDE4B2, greater than 10 µM; on PDE4C1 it was greater than 10 µM; on PDE4D2, greater than 10 µM.

With `COc1ccc([C@@]23C=CC(=O)C[C@@H]2N(C)CC3)cc1OC` [Mesembrenone], the “5-HT transporter (“SERT”) nH” value in series [1] was 1.0.

For `COc1ccc([C@@]23CCC(=O)C[C@@H]2N(C)CC3)cc1OC` [(−) mesembrine], in series [2], the half-life in plasma entry is given as “less than 2 hours”.
